Reference: publication PMC3747139 (PLoS ONE, 2013)
Where two headings read alike, the source gives them in different places. Marks after values point to notes of the source that are not given here.

Experiments:
[1] = Cell count assay (trypan blue); assay type: cell-based; set-up: concentration or dose not given beside the values; conditions: human; for viability at 24 h: read-out: Number of viable cells after 24 h of ligand treatment; for viability at 48 h: read-out: Number of viable cells after 48 h of ligand treatment
Protocol: (§1) Normal and tumor cell lines were seeded at 20000–40000 cells/cm^2 with 0.2 mL/cm^2 media and incubated for 48 h at 37°C, 6% CO2, 95% relative humidity. […] After 24 h and 48 h of incubation, cells were washed with 300 µl PBS or 0.02% EDTA, trypsinized, followed by harvesting at 37°C. 200 µl cell suspension was transferred into 1.5 ml microcentrifuge tube. To the cell suspension, 300 µl PBS followed by 500 µl of 0.4% trypan blue solution was added. To get the homogenised solution, the microcentrifuge tube was gently tapped for 5 min, 20 µl of cell suspension was loaded in to a chamber of the haemocytometer.

A549 = assay: Cell count assay (trypan blue); assay type: cell-based, human; conditions: for Number of viable cells after 24 h of ligand treatment: A549, 24 h; for Number of viable cells after 48 h of ligand treatment: A549, 48 h;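 as to Number of viable cells after 24 h of ligand treatment: each ligand tested at its own IC50 concentration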
Protocol: as §1

B16F10 = assay: Cell count assay (trypan blue); assay type: cell-based, human; conditions: for Number of viable cells after 24 h of ligand treatment: B16F10, 24 h; for Number of viable cells after 48 h of ligand treatment: B16F10, 48 h
Protocol: as §1

MCF-7 = assay: Cell count assay (trypan blue); assay type: cell-based, human; conditions: for Number of viable cells after 24 h of ligand treatment: MCF-7, 24 h; for Number of viable cells after 48 h of ligand treatment: MCF-7, 48 h;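 as to Number of viable cells after 48 h of ligand treatment: each ligand tested at its own IC50 concentration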
Protocol: as §1

HQF DNA [d(T2AG3)4] = assay: SYBR Green melting study with HQF DNA; assay type: binding, human; conditions: melting temperature of HQF DNA (5 µM) in presence of 1 µM ligand
Protocol: When quadruplex DNA melts to form ssDNA structure, SG fluorescence intensity gradually reduces as SG has no binding to ssDNA. Each time, 5 µM of HQF DNA [d(T2AG3)4)], 5 µM of dsDNA (prepared by mixing equal concentration of poly-dA-dT and poly-dT-dA), 5 µM ssDNA ( poly dT alone) and 1 µM of each ligand was incubated at 4°C for 16 h, and used for melting studies. […] Affinity, stoichiometry and thermodynamic parameters for quadruplex-ligand complex were studied with 60 µM of ligand and 10 µM of HQF DNA using Microcal VP-ITC (Northampton, MA, USA). Ligand addition to G-quadruplex DNA was made every 180 seconds. Titration experiments were performed thrice and blank correction was made each time to minimize error.

[2] = CRL-2115 cells (normal cell line), CRL-2115, 24 h
[3] = CRL-2115 cells (normal cell line), CRL-2115, 48 h
[4] = CRL-2120 cells (normal cell line), CRL-2120, 24 h
[5] = CRL-2120 cells (normal cell line), CRL-2120, 48 h
[6] = NCM-460 cells (normal cell line), NCM-460, 24 h
[7] = NCM-460 cells (normal cell line), NCM-460, 48 h

| Compound | viability at 24 h [1, 2] | viability at 48 h [1, 3] | viability at 24 h [1, 4] | viability at 48 h [1, 5] | viability at 24 h [1, 6] | viability at 48 h [1, 7] | Number of viable cells after 24 h of ligand treatment (A549) | Number of viable cells after 48 h of ligand treatment (A549) | Number of viable cells after 24 h of ligand treatment (B16F10) | Number of viable cells after 48 h of ligand treatment (B16F10) | Number of viable cells after 24 h of ligand treatment (MCF-7) | Number of viable cells after 48 h of ligand treatment (MCF-7) | Tm (HQF DNA [d(T2AG3)4]) |
| --- | --- | --- | --- | --- | --- | --- | --- | --- | --- | --- | --- | --- | --- |
| c1ccc(Cn2nnc(-c3ccccc3)c2-c2ccccc2)cc1 [Ligand L4, 1-Benzyl-4,5-diphenyl-1H-1,2,3-triazole] | 80 to 90% | 50 to 60% | 80 to 90% | 80 to 90% | 80 to 90% | 50 to 60% | + (Viable cells in the range of 80%–90%) | ++ (Viable cells in the range of 50%–60%) | ++/++ (Viable cells in the range of 50%–60%) | ++/++ (Viable cells in the range of 50%–60%) | ++/++ (Viable cells in the range of 50%–60%) | ++/++ (Viable cells in the range of 50%–60%) | 32 ^o C |
| CCCCc1nnn(Cc2ccccc2)c1/C=C/c1ccccc1 [Ligand L5, (E)-1-Benzyl-4-butyl-5-styryl-1H-1,2,3-triazole] | 80 to 90% | 50 to 60% | 80 to 90% | 50 to 60% | 80 to 90% | 50 to 60% | + (Viable cells in the range of 80%–90%) | ++ (Viable cells in the range of 50%–60%) | ++/++ (Viable cells in the range of 50%–60%) | ++/++ (Viable cells in the range of 50%–60%) | ++/++ (Viable cells in the range of 50%–60%) | ++/++ (Viable cells in the range of 50%–60%) | 33 ^o C |
| CCCCc1nnn(Cc2ccccc2)c1-c1cccc(O)c1 [Ligand L6, 3-(3-Benzyl-5-butyl-3H-1,2,3-triazol-4-yl)phenol] | 80 to 90% | 50 to 60% | 80 to 90% | 50 to 60% | 50 to 60% | 50 to 60% | ++/++ (Viable cells in the range of 50%–60%) | ++/++ (Viable cells in the range of 50%–60%) | + (Viable cells in the range of 80%–90%) | ++ (Viable cells in the range of 50%–60%) | + (Viable cells in the range of 80%–90%) | ++ (Viable cells in the range of 50%–60%) | 33 ^o C |
| c1ccc(-c2nnn(CC3CCCCO3)c2-c2ccccc2)cc1 (centres unmarked) [Ligand L7, 4,5-Diphenyl-1-((tetrahydro-2H-pyran-2-yl)methyl)-1H-1,2,3-triazole] | 80 to 90% | 80 to 90% | 80 to 90% | 50 to 60% | 80 to 90% | 50 to 60% | +/+ (Viable cells in the range of 80%–90%) | +/+ (Viable cells in the range of 80%–90%) | + (Viable cells in the range of 80%–90%) | ++ (Viable cells in the range of 50%–60%) | + (Viable cells in the range of 80%–90%) | ++ (Viable cells in the range of 50%–60%) | 29 ^o C |
| Oc1cccc(-c2c(-c3ccccc3)nnn2CC2CCCCO2)c1 (centres unmarked) [Ligand L8] | – | – | – | – | – | – | – | – | – | – | – | – | 27 ^o C |
